# Reference: PubChem BioAssay AID1963597 (National Center for Advancing Translational Sciences (NCATS), 2024)
# System: human liver microsomes, metabolic stability half-life
# Assay: NCATS Human Liver Microsomal (HLM) Stability Profiling
# Conditions: higher = more stable; screened at 1 µM (by protocol)
# Source text: Assay submitter (PI): Dr. Pranav Shah
# NIH Center for Advancing Translational Sciences
# Pharmacokinetic issues were the leading cause of drug attrition, accounting for approximately 40% of all cases before the turn of the century. To this end, several high-throughput in vitro assays like microsomal stability have been developed to evaluate the pharmacokinetic profiles of compounds in early stages of drug discovery. At NCATS, a single-point rat liver microsomal (RLM) stability assay is used as a Tier I assay, while human liver microsomal (HLM) stability is employed as a Tier II assay. While it is beneficial to have compound libraries screened for HLM stability, the increasing magnitude of hits routinely generated, and the time- and re-source-intensive nature of the assay makes it important to find alternatives. One strategy is to rely on in silico models that have been developed using data generated from these assays. Herein, we describe the development of an HLM stability prediction model using our in-house dataset of ~7,000 compounds, employing both traditional and advanced machine learning methods. Additionally, the strong correlation between our RLM and HLM data was further reinforced by the fact that our HLM model performance improved after adding RLM stability predictions as an input descriptor. […] The best model along with a subset of our dataset has been made publicly accessible on the NCATS@ADME website for the benefit of the greater drug discovery community.
# Microsomal Stability Assay
# The substrate depletion method, also called the in vitro t1/2 method was used to analyze test compounds. Incubation and liquid handling were carried out using a previously described method (Shah et al., 2016). Briefly, each reaction mixture (110 µL) consisted of a test article (1 µM), human liver microsomes (0.5 mg/mL), and NADPH regenerating system in phosphate buffer at pH 7.4. Samples were incubated in 384-well plates at 37 degrees C for 0, 5, 10, 15, 30 and 60 min. At each time point, 10 µL of the incubation mixture was aspirated into another 384-well plate which contained cold acetonitrile (ACN) with internal standard (albendazole). All plates were centrifuged at 3000 rpm for 20 min at 4 degrees C, and the supernatants were transferred to a 384-well injection plate. Sample quantification and analysis was performed using a previously described method (Shah et al., 2016, Siramshetty et al., 2020).
# 1: Shah, P. et al. An Automated High-Throughput Metabolic Stability Assay Using an Integrated High-Resolution Accurate Mass Method and Automated Data Analysis Software. Drug Metab Dispos 44, 1653-1661 (2016).
# 2: Siramshetty et al. Retrospective assessment of rat liver microsomal stability at NCATS: data and QSAR models. Sci Rep 26;10(1):20713 (2020).
row,SMILES,half-life [min]
1,O=c1cc(-c2ccc(O)cc2)oc2cc(O)cc(O)c12,18.8
2,Cc1ccc(C)c(N2CCN(CCCNC(=O)c3ccc4nc(C(C)C)oc4c3)CC2)c1,13.8
3,Nc1ncnc2c1ncn2[C@H]1O[C@@H](C(=O)N2CCN(CC(=O)Nc3cccc4c3CNC4=O)CC2)[C@H](O)[C@@H]1O,> 120
4,O=C(NCCN1CCN(c2cccc3c2OCCO3)CC1)c1ccc(F)cc1,34.2
5,O=C(CCC1CCN(Cc2ccccc2)CC1)c1ccc2c(c1)NCCCC2,5.22
6,COc1cc(C=O)ccc1O,97.1
7,CCOC(=O)c1ncn2c1CN(C)C(=O)c1cc(F)ccc1-2,> 120
8,Cc1cccc(C=NNc2cc(N3CCOCC3)nc(OCCc3ccccn3)n2)c1,16
9,CCCCCn1cc(C(=O)Oc2cccc3cccnc23)c2ccccc21,4.97
10,CCCc1nc(C(C)(C)O)c(C(=O)O)n1Cc1ccc(-c2ccccc2-c2nn[nH]n2)cc1,> 120
11,Cc1ccc2c(c1)c1c(n2CCc2ccc(C)nc2)CCN(C)C1,8.67
12,Cc1ccccc1C(=O)N1CCC(C(=O)N2CCC(N3Cc4ccccc4C3=O)CC2)CC1,93.1
13,CC(C)(N)Cc1ccccc1Cl,> 120
14,Cc1ccccc1C(C(=O)NC1CCCCC1)N(C(=O)CNc1ccc(C#N)cc1)c1cccc(F)c1 (configuration not stated),2.58
15,CCOC(=O)C1(c2ccccc2)CCN(CCc2ccc(N)cc2)CC1,86.5
16,O=C(NN1CCCC1)NS(=O)(=O)c1ccc(Cl)cc1,> 120
17,CC1(C)C(=O)C(C)(C)c2cc(C(=O)Nc3ccc(C(=O)O)cc3)ccc21,> 120
18,CCNCc1nc2c(N)nc3ccccc3c2n1CC(C)(C)O,> 120
19,Cc1ccc(-c2cc3ncc(C(=O)c4cc([N+](=O)[O-])ccc4O)cn3n2)cc1,4.91

row,SMILES,half-life [min]
1,O=S(c1cc(Cl)cc(Cl)c1O)c1cc(Cl)cc(Cl)c1O,99.8
2,COC(=O)[C@H](Cc1cccc(C(=N)N)c1)[C@@H](C)NC(=O)c1ccc(-c2cc[n+]([O-])cc2)cc1,> 120
3,CCOc1ccc(S(=O)(=O)NCCc2sc(-c3ccc(C)cc3)nc2C)cc1,4.09
4,CC1(C)CCC(CN2CCN(c3ccc(C(=O)NS(=O)(=O)c4ccc(NCC5CCOCC5)c([N+](=O)[O-])c4)c(Oc4cnc5[nH]ccc5c4)c3)CC2)=C(c2ccc(Cl)cc2)C1,32.8
5,CCOc1cc(CNC(=O)c2ccc(C)c(NC(=O)c3nsc4ccccc34)c2)ccc1OC,7.12
6,CC(CN(C)C)CN1C2=C(CCCC2)SC2CCCCC21 (configuration not stated),14.3
7,C[C@@H]1O[C@@H](O[C@H]2C[C@@H](O)[C@]3(CO)[C@H]4[C@H](O)C[C@]5(C)[C@@H](C6=CC(=O)OC6)CC[C@]5(O)[C@@H]4CC[C@]3(O)C2)[C@H](O)[C@H](O)[C@H]1O,> 120
8,Cc1c(C(=O)Nc2cccc(C(F)(F)F)c2)cc(-c2ccccc2)n1CCCN1CCOCC1,8.06
9,c1cncc(CN2CCC(n3ncc4c(N5CCOCC5)nc(-c5ccc6[nH]ccc6c5)nc43)CC2)c1,14.9
10,CO/N=C(\C(=O)O)c1csc(NC(=O)CCl)n1,11.4
11,COCCc1ccc(OC[C@H](O)CNC(C)C)cc1,> 120
12,CC1CCN(CC(=O)N2CCCc3c2c(=O)oc2ccc(OCc4ccccc4)cc32)CC1,1.52
13,COc1ccc(CC(=O)NCC(c2cccs2)S(=O)(=O)c2ccc(Cl)cc2)cc1 (configuration not stated),4.19
14,COc1ccc(C2Nc3ccccc3C(=O)N2Cc2ccco2)cc1COc1ccc(NC(C)=O)cc1 (configuration not stated),2.15
15,CCc1cc(Cl)c(OC)c(C(=O)NC[C@@H]2CCCN2CC)c1O,13.6
16,CC(=O)c1ccc(C(=O)N(Cc2cccnc2)c2nc3c(C)c(C)ccc3s2)cc1,6.25
17,C=CCOC1=C(OCC(O)CNC(C)C)CCCC1 (configuration not stated),> 120
18,CCN1CCCC1=O,> 120
